Results on seven compounds are retold here after patent US5686461A, “Indole derivatives” (Glaxo Wellcome S.p.A., priority 1993, dated 1997).

SMILES strings stand for the structures. Structures can show the parent of a compound that is named as a salt. Where two headings read alike, the source gives them in different places.

One assay relates to NMDA induced convulsions. Put plainly: inhibition of NMDA induced convulsions in the mouse (procedure of Chiamulera C et al.). Format: in vivo. From the text: In this test the ability of the compound to inhibit the generalized seizures induced by an intracerebroventricular injection of NMDA in mice was examined at a number of dose levels. […] This expressed as mg/kg is referred to as the ED50 value.

Assay [1] addresses T1, strychnine insensitive glycine binding site located on the NMDA receptor complex (Rattus norvegicus, UniProt P35439).
T1 construct: from tissue
Put plainly: biochemical.

Setting [2] is: mouse, intravenous, NMDA given intracerebroventricularly, read-out: ED50 (dose required to protect 50% of the animals from the convulsive action of NMDA), iv.
[3] abbreviates: mouse, oral, NMDA given intracerebroventricularly, read-out: ED50 (dose required to protect 50% of the animals from the convulsive action of NMDA), po.

The term ED50 denotes the midpoint of the dose-response relation. Consider `O=C(/C=C/c1c(C(=O)[O-])[nH]c2cc(Cl)cc(Cl)c12)NC12CC3CC(CC(C3)C1)C2.[Na+]`, for which the ED50 amounted to 0.02 mg/kg in the assay on NMDA induced convulsions (Mus musculus, iv, read-out: ED50 (dose required to protect 50% of the animals from the convulsive action of NMDA), iv) and 5.47 mg/kg with NMDA induced convulsions (Mus musculus, po, read-out: ED50 (dose required to protect 50% of the animals from the convulsive action of NMDA), po).

As usually defined, the Ki is a dissociation constant, usually derived from enzyme kinetics or from competition with a known ligand. Low readings indicate higher affinity, high ones lower affinity. Compound `O=C(/C=C/c1c(C(=O)O)[nH]c2cc(Cl)cc(Cl)c12)N[C@@H]1C[C@H]2CC[C@@H]1C2` (relative stereo) [Example 10b, (E)-3-(2'-exo-2-norbornylcarbamoyl)ethenyl)-4,6-dichloroindole-2-carboxylicacid sodium salt] gave a Ki in assay [1] of 20 nM. The ED50 in the assay with NMDA induced convulsions (setting [2]) was 0.01 mg/kg; with NMDA induced convulsions (setting [3]), 11.1 mg/kg.

On to `O=C(/C=C/c1c(C(=O)O)[nH]c2cc(Cl)cc(Cl)c12)N[C@H]1C[C@H]2CC[C@@H]1C2` (relative stereo) [Example 11, (E) 3-[2-endo-2-norbornylcarbamoyl)ethenyl]4,6-dichloroindole-2-carboxylic acid sodium salt], for which affinity in assay [1] was put at a Ki of 10 nM.

In the case of `O=C(/C=C/c1c(C(=O)O)[nH]c2cc(Cl)cc(Cl)c12)NC12CC3CC(CC1C3)C2` [Example 14, (E) 3-[2'-(noradamantyl-3"-aminocarbonyl)ethenyl]-4,6-dichloroindole-2-carboxylic acid sodium salt], affinity in assay [1] was put at a Ki of 26.3 nM. Also, the ED50 with NMDA induced convulsions (setting [2]) is 0.05 mg/kg; in the assay with NMDA induced convulsions (setting [3]), 6 mg/kg.

With `CC1(C)[C@@H]2CC[C@@]1(C)[C@@H](NC(=O)/C=C/c1c(C(=O)O)[nH]c3cc(Cl)cc(Cl)c13)C2` [Example 16, (E) 3-[2'-(1"-R-bornyl-2"-aminocarbonyl)ethenyl]-4,6-dichloroindole-2 carboxylic acid sodium salt], the inhibition constant (Ki) in assay [1] is 39.8 nM.

For the compound `O=C(/C=C/c1c(C(=O)O)[nH]c2cc(Cl)cc(Cl)c12)NC1C2CC3CC(C2)CC1C3` (stereo not drawn) [Example 17, (E) 3-[2'-(2"-adamantylaminocarbonyl)ethenyl]-4,6-dichloroindole-2-carboxylic acid sodium salt], affinity in assay [1] was put at a Ki of 25.1 nM.

`O=C(/C=C/c1c(C(=O)[O-])[nH]c2cc(Cl)cc(Cl)c12)NC12CC3CC(CC(C3)C1)C2.[Na+]` [sodium salt]: the Ki in assay [1] is 63.1 nM.
